From patent publication US20100298305A1, “TIZANIDINE FOR THE TREATMENT OF POST-TRAUMATIC STRESS DISORDER AND NIGHTMARES” (The United States Government, as represented by the …, priority 2008, published 2010) come the findings set out here.

Read-outs that look alike come from different tables or passages of the source.

Series [1] has as its system PTSD. Put plainly: Example 1 case summaries 1-6: tizanidine as adjunctive treatment for PTSD, anxiety, depression, psychosis or impaired cognition. The class given is in vivo, human. Particulars: for signs or symptoms: Case 3, more than two years, sertraline 250 mg daily, divalproex sodium 2500 mg daily, quetiapine 100 mg twice daily and 400 mg at bedtime, amitriptyline 25 mg at bedtime, tramadol 50 mg as needed. The procedure: Treatment was begun with sertraline 100 mg per day for anxiety and nortriptyline 25 mg at bedtime for headaches. […] Treatment with tizanidine was started and the dose was increased to 8 mg at bedtime.
Tizanidine was started and titrated up to 4 mg at bedtime along with aripiprazole (15 mg at bedtime) and clonazepam (0.5 mg daily).
These medications included sertraline (250 mg daily), divalproex sodium (2500 mg daily), quetiapine (100 mg twice daily and 400 mg at bedtime), amitriptyline (25 mg at bedtime), and tramadol (50 mg as needed for severe headache). […] A trial of tizanidine was started and the dose was titrated up to 8 mg at bedtime.
Pharmacologic Treatment and Response: While on the psychiatry unit, they were treated with sertraline for PTSD and nortriptyline for headaches and depression. […] They were started on tizanidine 4 mg at bedtime.
After approximately one year, subject agreed to a trial of tizanidine as an addition to sertraline. […] They agreed to increase the dose to 4 mg at bedtime and follow-up in four weeks. […] An atypical antipsychotic medication, aripiprazole, was added to their medications.
Treatment with tizanidine 4 mg at bedtime was added to the existing sertraline.

For series [2], the system named is PTSD. Put plainly: Example 2 case summaries 7-9: switching from once to twice-daily dosing of tizanidine. Particulars: for improvement on medications: approximately one year, doses close to the maximum recommended dose. The procedure:
They were continued on aripiprazole, quetiapine, sertraline, and trazodone. Treatment with tizanidine was started for the nightmares and poor sleep.
They were switched from tizanidine 8 mg at bedtime to tizanidine 6 mg in the morning and 8 mg at bedtime. […] They continued on the sertraline, divalproex, and trazodone for initial insomnia. The tizanidine was switched to 4 mg in the morning and 4 mg at bedtime.
Subject was started on tizanidine up to 8 mg at bedtime for nightmares. They also were issued a device to assist with memory problems. A rating scale for common cognitive problems was administered by speech pathology prior to issuing them a personal digital assistant as a memory assist device.
They continued to take sertraline and tizanidine. At a psychology evaluation session, subject completed two self-report instruments of PTSD and depressive symptoms to establish a baseline indication of symptom severity. […] Subject was then switched from tizanidine 8 mg at bedtime to 4 mg twice daily.
After approximately one year of being followed in the psychiatry clinic, they became more willing to try medication and agreed to a trial of tizanidine.

The test system of series [3] is PTSD. Particulars: Case 10; for ADHD symptoms: earlier medication trials during military service. From the text:
Given the prior history of ADHD, methylphenidate was cautiously added to the venlafaxine. […] They were referred to a specialty inpatient program for PTSD. During the inpatient program, the antidepressant was switched from venlafaxine to duloxetine.

Setting [4] is: Case 1, sertraline 100 mg per day with nortriptyline 25 mg at bedtime, after four weeks.
Setting [5] is: Case 4, sertraline with nortriptyline, five days after hospital discharge.
The mark [6] stands for this setting: Case 8, sertraline 150 mg per day, two months later.

Take `CN[C@H]1CC[C@@H](c2ccc(Cl)c(Cl)c2)c2ccccc21` [sertraline]: in series [1] (setting [4]), the “anxiety, depression, and psychosis” value is reported as “only a modest decrease”; the “intensity and frequency of nightmares” value was “unchanged”. Moreover, the “anxiety, nightmares, and psychosis” value in series [1] (Case 2, sertraline 200 mg daily, bupropion 150 mg twice daily and prazosin 5 mg at bedtime, one year) is reported as “only a mild impact”. The signs or symptoms result in series [1] is on record as “None of these medications significantly reduced their signs or symptoms”. Also, in series [1] (setting [5]), the hallucinations and paranoia result is “improvements regarding hallucinations and paranoia”; the “sleep problems and nightmares” value is “persistent sleep problems and nightmares”. Besides, in series [1] (Case 5, sertraline increased to 200 mg per day with sodium divalproex and aripiprazole added, twelve months), the “response to medication changes” value is recorded as “only a modest response”. The treatment results in series [1] (Case 5, sertraline since release from military duty) was “poor results”. The “PTSD signs and symptoms” value in series [1] (Case 6, sertraline up to 200 mg per day, approximately one year) is recorded as “only modest improvement”. Moreover, in series [2] (Case 7), the improvement on medications result was “only modest improvement”. Further, in series [2] (setting [6]), the anxiety symptoms entry was “responded well” and the irritability entry is on record as “not improved”.

For `COc1cc2nc(N3CCN(C(=O)c4ccco4)CC3)nc(N)c2cc1OC` [prazosin], in series [1] (Case 2, prazosin 5 mg at bedtime added, sertraline increased to 200 mg daily), the nightmares result was “reduced but did not eliminate nightmares”.

Take `CC(NC(C)(C)C)C(=O)c1cccc(Cl)c1` (stereo not shown) [bupropion]: the ADHD symptoms result in series [3] is reported as “neither of which were effective”.

For `CC1(C)O[C@@H]2[C@@H](CO[C@@]3(COS(N)(=O)=O)OC(C)(C)O[C@@H]23)O1` [topiramate], in series [2] (Case 7, recent addition of topiramate), the “frequency of combined visual-olfactory hallucinations” value is recorded as “did not reduce the frequency”.

In the case of `Cc1ccc(-c2nc3ccc(C)cn3c2CC(=O)N(C)C)cc1` [zolpidem], the nightmares result in series [2] (Case 8, initial treatment with zolpidem) was “did not improve the nightmares”.

`O=C1CCc2ccc(OCCCCN3CCN(c4cccc(Cl)c4Cl)CC3)cc2N1` [aripiprazole]: the improvement on medications entry in series [2] (Case 7) is recorded as “only modest improvement”.

With `OCCOCCN1CCN(C(c2ccccc2)c2ccc(Cl)cc2)CC1` (stereo not shown) [hydroxyzine], the improvement on medications result in series [2] (Case 7) is on record as “only modest improvement”.

Consider `CN(C)CCC=C1c2ccccc2CCc2ccccc21` [amitriptyline], for which the signs or symptoms result in series [1] was “None of these medications significantly reduced their signs or symptoms”.

Turning to `COC(=O)C(c1ccccc1)C1CCCCN1` (stereo not shown) [methylphenidate], the ADHD symptoms entry in series [3] is reported as “neither of which were effective”. The “mood and anxiety symptoms” value in series [3] (methylphenidate added to venlafaxine) was “marked improvement”; in series [3] (methylphenidate as monotherapy, several weeks), “improved mood and anxiety symptoms”. Besides, the “mood, anxiety, and cognitive symptoms” value in series [3] (short-acting methylphenidate 10 mg three times daily) is listed as “additional improvements”.

For the molecule `COc1cccc(C2(O)CCCCC2CN(C)C)c1` (stereo not shown) [tramadol], in series [1], the signs or symptoms entry is on record as “None of these medications significantly reduced their signs or symptoms”.

With `O=c1n(CCCN2CCN(c3cccc(Cl)c3)CC2)nc2ccccn12` [trazodone], the improvement on medications entry in series [2] (Case 7) is “only modest improvement”.

`CNCC[C@H](Oc1cccc2ccccc12)c1cccs1` [duloxetine]: the “helpfulness as judged by subject” value in series [3] (antidepressant switched from venlafaxine to duloxetine) was “did not believe the duloxetine was helpful”.

Take `OCCOCCN1CCN(C2=Nc3ccccc3Sc3ccccc32)CC1` [quetiapine]: in series [1] (Case 2, trial of quetiapine), the hallucinations entry was “did not affect the hallucinations”. Besides, in series [1], the signs or symptoms entry is reported as “None of these medications significantly reduced their signs or symptoms”. Moreover, in series [2] (Case 7), the improvement on medications result was “only modest improvement”.

As to `COc1ccc(C(CN(C)C)C2(O)CCCCC2)cc1` (stereo not shown) [venlafaxine], the condition result in series [1] (Case 2, sertraline switched to venlafaxine up to 300 mg daily, six months) was “did not significantly change their condition”. For the same molecule, the adverse effect entry in series [2] (Case 8, Venlafaxine up to 150 mg daily) was “developed akathisia”. Further, in series [3] (venlafaxine sustained-release 225 mg per day with zolpidem 10 mg at bedtime), the “mood and anxiety symptoms” value is recorded as “only modestly improved”.

As for `CCCC(CCC)C(=O)O` [divalproex sodium], the signs or symptoms result in series [1] is listed as “None of these medications significantly reduced their signs or symptoms”. The improvement on medications entry in series [2] (Case 7) is recorded as “only modest improvement”.
